Measurements from patent US5444069A, “Imidazo-pyridine angiotensin II antagonists used to treat memory loss” (Warner-Lambert Company, priority 1994, dated 1995).
Values belong to the molecule of their own block, whether it stands above or below them.

Assays:
[1] = test system: rat striatum acetylcholine (ACh); experiment: effect on rat striatal acetylcholine (ACh) levels; assay type: in vivo; settings: 0.5 h, ± SEM, vehicle 61.0 ± 2.33, * p < 0.05
Method: ACh concentrations were determined as described below. Each
Results were analyzed by a oneway

[2] = test system: angiotensin II receptors (AT1/AT2) of corpus luteum; experiment: inhibition of 125I-angiotensin II binding, corpus luteum; parameters: species or system rabbit
[3] = test system: angiotensin II receptors (AT1/AT2) of granulosa cell; settings: 1 μM; 125I-angiotensin II; adapted from Pucell et al., Endocrinology 1991; cited from earlier work
[4] = target: T1, AT2 receptor (rabbit uterus receptor preparations) (Oryctolagus cuniculus, UniProt G1T351); experiment: displacement of 3H-angiotensin II from rabbit uterus receptor preparations; assay type: binding; settings: read-out: IC50 Values in Rabbit Uterine Preparations
T1 construct: cell membrane preparations derived from rabbit uterus and corpus luteum; from tissue; host or cells: rabbit uterus, cell membrane preparation
T1 sequence (G1T351 1-363): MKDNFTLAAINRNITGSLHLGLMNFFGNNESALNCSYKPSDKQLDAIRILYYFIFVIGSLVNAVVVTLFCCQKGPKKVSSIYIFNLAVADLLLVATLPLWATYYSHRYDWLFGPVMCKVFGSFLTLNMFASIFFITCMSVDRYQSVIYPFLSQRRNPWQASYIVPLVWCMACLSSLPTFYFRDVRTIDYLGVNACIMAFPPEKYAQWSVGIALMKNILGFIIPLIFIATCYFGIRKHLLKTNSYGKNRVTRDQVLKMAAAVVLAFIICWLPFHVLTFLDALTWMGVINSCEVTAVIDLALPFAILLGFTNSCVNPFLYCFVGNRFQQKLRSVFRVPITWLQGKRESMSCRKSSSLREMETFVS
Text: AT2 receptors are known to exist in organs of the female reproductive system. […] More specifically, AT2 receptors are densely located on granulosa cells in atretic follicles of the ovary.

[5] = target: T2, AT2 receptor (whole rat brain) (Rattus norvegicus, UniProt P35351); experiment: angiotensin II receptor binding in whole rat brain (DTT protocol); settings: whole rat brain; DTT included to eliminate AT1 binding; read-out: IC50 Values in whole Rat Brain Preparations
T2 construct: IC50 Values in whole Rat Brain Preparations; from tissue; host or cells: whole rat brain
T2 sequence (P35351 1-363): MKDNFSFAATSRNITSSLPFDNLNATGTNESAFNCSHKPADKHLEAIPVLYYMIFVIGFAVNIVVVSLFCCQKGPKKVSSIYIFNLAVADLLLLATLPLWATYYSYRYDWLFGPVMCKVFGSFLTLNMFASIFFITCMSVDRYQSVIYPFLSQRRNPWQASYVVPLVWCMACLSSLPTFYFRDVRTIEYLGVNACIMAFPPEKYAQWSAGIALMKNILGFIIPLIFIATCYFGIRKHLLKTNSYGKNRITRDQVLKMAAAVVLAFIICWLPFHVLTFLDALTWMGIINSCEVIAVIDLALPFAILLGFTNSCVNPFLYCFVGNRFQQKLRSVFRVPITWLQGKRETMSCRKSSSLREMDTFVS
Text: Since receptor-specific binding in whole brain is low and is a mixture of two subtypes, an alternative protocol (Bennett and Snyder, Eur. J. Pharmacol., 67, 11-25) was used. This method includes DTT and thereby eliminates binding at AT1 receptors, thus-allowing evaluation of AT2 receptor events.

[6] = whole body autoradiography in rats; assay type: in vivo, rat
Method: The iodination was initiated by addition of chloramine-T (30 μg, 132 nMol) that was diluted to a concentration of 0.05 M in the same buffer as above. After shaking at room temperature for one minute the reaction was quenched with sodium metabisulfite (10 mg). […] This labeled material was reconstituted in 5% aqueous dextrose containing 30 mg/mL of the disodium salt of unlabeled Example 12 and adjusted to pH 9 by addition of several μL of 1 mM NaOH.
Male and female Sprague-Dawley rats (Charles River, Wilmington, average weight 281 g) were used in the autoradiography studies. Animals were on a fixed light cycle with unrestricted access to normal rat chow and water prior to the experiment. […] Animals were killed at 15 or 60 minutes postdose by halothane anesthesia and were rapidly frozen in acetone with dry ice. Carcasses were subsequently embedded in methylcellulose ice for whole-body sectioning and autoradiography. Autoradiograms were analyzed by computer assisted densitometry.
Results of the autoradiographical experiments are summarized in Table X. A relative scale of radioactivity is assigned with background equal to 0 and the most dense reading (liver and intestines) equal to 10. […] Another site that is highly labeled is the ovarian follicle. It is the most highly labeled non-excretory organ. All other tissues show weaker radioactivity.

[7] = Barnes et al., Neuroreport 1991, cited from earlier work
[8] = test system: angiotensin II induced secretion of AVP; settings: isolated rat explants; Schiavone et al., Hypertension 1991; cited from earlier work
[9] = test system: angiotensin II receptors (AT1 and AT2), rat brain regions; experiment: displacement of 125I-angiotensin II from receptor preparations of rat brain regions; assay type: binding; settings: antagonist 10 μM
Method: The concentration of all three antagonist compounds in these experiments is 1 μM (above the maximal effect concentration).

[10] = 30 mg/kg i.v. rat, scale 0-10, represents excretion

Structure (SMILES): O=C(CCCN1CCC(O)(c2ccc(Cl)cc2)CC1)c1ccc(F)cc1 [Haloperidol, haloperidol, reference compound]
ACh concentration, rat striatum ([1]; 2 mg/kg IP): 36.9 ± 3.27 nM/g

Structure (SMILES): COc1ccc(Cn2cnc3c2C[C@@H](C(=O)O)N(C(=O)C(c2ccccc2)c2ccccc2)C3)cc1C [Example 3, (S)-(-)-5-(diphenylacetyl)-4,5,6,7-tetrahydro-1-[(4-methoxy-3-methyl-phenyl)methyl]-1H-imidazo[4,5-c]pyridine-6-carboxylic acid]
IC50 [4]: 26 nM

Structure (SMILES): Cc1cc(Cn2cnc3c2C[C@@H](C(=O)O)N(C(=O)C(c2ccccc2)c2ccccc2)C3)ccc1N [Example 2, (S)-(-)-1-[(4-amino-3-methylphenyl)-methyl]-5-(diphenylacetyl)-4,5,6,7-tetrahydro-1H-imidazo[4,5-c]pyridine-6-carboxylic acid]
IC50 [4]: 32 nM | reversal of scopolamine-induced amnesia [7]: reverses scopalamine-induced amnesia | cognition enhancement ([7]; rodent behavioral models): does indeed possess cognition enhancing actions in rodent behavioral models | antagonism of angiotensin II induced AVP secretion [8]: antagonizing the angiotensin II induced secretion of AVP

Structure (SMILES): Cc1cc(Cn2cnc3c2C[C@@H](C(=O)O)N(C(=O)C(c2ccccc2)c2ccccc2)C3)cc([125I])c1O [^125 CI-Example 12]
Relative Radioactivity, Adrenal ([6]; 30 mg/kg i.v. rat, scale 0-10): 3 | Relative Radioactivity, Blood ([6]; 30 mg/kg i.v. rat, scale 0-10): 4 | Relative Radioactivity, Heart ([6]; 30 mg/kg i.v. rat, scale 0-10): 3 | Relative Radioactivity, Kidney ([6]; 30 mg/kg i.v. rat, scale 0-10): 4-8 | Relative Radioactivity, Lung ([6]; 30 mg/kg i.v. rat, scale 0-10): 4 | Relative Radioactivity, Ovarian follicle ([6]; 30 mg/kg i.v. rat, scale 0-10): 9 | Relative Radioactivity, Ovary (non-follicular) ([6]; 30 mg/kg i.v. rat, scale 0-10): 3-5 | Relative Radioactivity, Salivary gland ([6]; 30 mg/kg i.v. rat, scale 0-10): 6-7 | Relative Radioactivity, Thymus ([6]; 30 mg/kg i.v. rat, scale 0-10): 3 | Relative Radioactivity, Uterus ([6]; 30 mg/kg i.v. rat, scale 0-10): 2-3 | Relative Radioactivity, Bladder [6, 10]: 4-6 | Relative Radioactivity, Intestines [6, 10]: 10 | Relative Radioactivity, Liver [6, 10]: 10 | Relative Radioactivity, Testicle ([6]; 30 mg/kg i.v. rat, scale background 0 to most dense 10): 1-2

Structure (SMILES): COc1ccc(Cn2cnc3c2C[C@@H](C(=O)O)N(C(=O)Cc2ccccc2)C3)cc1C [Example 9, (S)-(-)-4,5,6,7-tetrahydro-1-[(4-methoxy-3-methylphenyl)methyl]-5-(phenylacetyl)-1H-imidazo-[4,5-c]pyridine-6-carboxylic acid]
IC50 [4]: 95 nM

Structure (SMILES): O=C(O)[C@@H]1Cc2c(ncn2CCC23CC4CC(CC(C4)C2)C3)CN1C(=O)C(c1ccccc1)c1ccccc1 [Example 4]
IC50 [4]: 91 nM | IC50 [5]: 180 nM

Structure (SMILES): COc1ccc(Cn2cnc3c2C[C@@H](C(=O)O)N(C(=O)C2c4ccccc4-c4ccccc42)C3)cc1C [Example 6]
IC50 [4]: 1200 nM

More lines, main results first:

% Inhibition with 1 μM Antagonist, Corpus luteum ([2]; 1 μM, 125I-angiotensin II, data from Warner-Lambert Co.): 97% | displacement of 125I-angiotensin II, corpus luteum (in words) ([2]; Table IX): displaces nearly all of the radioligand
Structure (SMILES): CCCCc1nc(Cl)c(CO)n1Cc1ccc(-c2ccccc2-c2nn[nH]n2)cc1 [DUP 753, reference compound]
ACh concentration, rat striatum ([1]; 30 mg/kg IP): 67.5 ± 5.71 nM/g | % Inhibition with 1 μM Antagonist, Granulosa cell [3]: 3%

IC50 [4]: 38 nM
Structure (SMILES): Cc1cc(Cn2cnc3c2C[C@@H](C(=O)O)N(C(=O)C(c2ccc(F)cc2)c2ccc(F)cc2)C3)ccc1N(C)C [Example 5, (S)-(-)-5-[bis(4-fluorophenyl)acetyl)-1-[[4-(dimethylamino)-3-methyl-phenyl]methyl]-4,5,6,7-tetrahydro-1H-imidazo[4,5-c]pyridine-6-carboxylic acid]

IC50 [4]: 25 nM | IC50 [5]: 570 nM
Structure (SMILES): Cc1cc(Cn2cnc3c2C[C@@H](C(=O)O)N(C(=O)C(c2ccccc2)c2ccccc2)C3)cc(I)c1O [Example 12, (S)-(-)-5-(diphenylacetyl)-1-[(4-hydroxy-3-iodo-5-methylphenyl)methyl]-4,5,6,7-tetrahydro-1H-imidazo[4,5-c]pyridine-6-carboxylic acid]
tissue distribution (in words) ([6]; rat, autoradiography): selectively distribute to the ovarian follicle

IC50 [4]: 74 nM | IC50 [5]: 3800 nM
Structure (SMILES): O=C(O)[C@@H]1Cc2c(ncn2Cc2ccccc2)CN1C(=O)C(c1ccccc1)c1ccccc1 [Example 8, (S)-(-)-5-(diphenylacetyl)-4,5,6,7-tetrahydro-1-(phenylmethyl)-1H-imidazo[4,5-c]pyridine-6-carboxylic acid]

IC50 [4]: 67 nM
Structure (SMILES): Cc1cc(Cn2cnc3c2C[C@@H](C(=O)O)N(C(=O)C(c2ccccc2)c2ccccc2)C3)ccc1[N+](=O)[O-] [Example 7]

IC50 [4]: 120 nM
Structure (SMILES): COc1ccc(Cn2cnc3c2C[C@@H](C(=O)O)N(C(=O)C(c2ccc(Cl)cc2)c2ccc(Cl)cc2)C3)cc1C [Example 10, (S)-(-)-5-[bis(4-chlorophenyl)acetyl]-4,5,6,7-tetrahydro-1-[(4-methoxy-3-methylphenyl)methyl]-1H-imidazo-[4,5-c]pyridine-6-carboxylic acid]

IC50 [5]: 1600 nM
Structure (SMILES): Cc1cccc(Cn2cnc3c2C[C@@H](C(=O)O)N(C(=O)C(c2ccccc2)c2ccccc2)C3)c1 [Example 16, (S)-(-)-5-(diphenylacetyl)-4,5,6,7-tetrahydro-1-[(3-methylphenyl)methyl]-1H-imidazo[4,5-c]pyridine-6-carboxylic acid]

IC50 [5]: 780 nM
Structure (SMILES): O=C(O)[C@@H]1Cc2c(ncn2Cc2ccc(C(F)(F)F)cc2)CN1C(=O)C(c1ccccc1)c1ccccc1 [Example 15, (S)-(-)-5-(diphenylacetyl)-4,5,6,7-tetrahydro-1-[[4-(trifluoromethyl)-phenyl]methyl]-1H-imidazo[4,5-c]pyridine-6-carboxylic acid]

IC50 [4]: 150 nM
Structure (SMILES): CC(=O)Nc1ccc(Cn2cnc3c2C[C@@H](C(=O)O)N(C(=O)C(c2ccccc2)c2ccccc2)C3)cc1C [Example 11, (S)-(-)-[[4-(acetylamino)-3-methylphenyl]methyl]-5-(diphenylacetyl)-4,5,6,7-tetrahydro-1H-imidazo-[4,5-c]pyridine-6-carboxylic acid]

125I-Angiotensin II Bound, Brain Stem ([9]; rat brain stem, total 2124): 288 cpm | 125I-Angiotensin II Bound, Cerebellum ([9]; rat cerebellum, total 571): 269 cpm | 125I-Angiotensin II Bound, Cortex ([9]; rat cortex, total 766): 336 cpm | 125I-Angiotensin II Bound, Cortical Neurons ([9]; rat cortical neurons, total 2647): 293 cpm | 125I-Angiotensin II Bound, Striatal Membrane ([9]; rat striatal membrane, total 2462): 1295 cpm
Structure (SMILES): CNCC(=O)N[C@@H](CCCN=C(N)N)C(=O)N[C@H](C(=O)N[C@@H](Cc1ccc(O)cc1)C(=O)N[C@H](C(=O)N[C@@H](Cc1cnc[nH]1)C(=O)N1CCC[C@H]1C(=O)N[C@@H](C)C(=O)O)C(C)C)C(C)C [SAR, saralasin, reference compound]
